This is an account of results in PMC5802278, “Molecular and cellular mechanisms of HIF prolyl hydroxylase inhibitors in clinical trials” (Chemical Science, 2017).

Structures are written as SMILES. Read-outs that look alike come from different tables or passages of the source.

As a reminder, the IC50 is the concentration that inhibits the measured activity by half.

For test [1], the system named is HIF-1α in HeLa and U2OS cells, HIF-1α and HIF-2α in Hep3b cells. Kind of test: Immunoblotting of HIF-α stabilization, dose titration. The class given is cell-based, human. The note with it: 6 hours treatment, all of the cells tested. The method, then:
The cellular HIF-α stabilization was further studied using immunoblotting. […]. page 15: […]
freshly every day as a 400 mM stock solution in 20 mM HCl, this was then diluted to 1 mM in deionized water. L-ascorbic acid (50 mM) and 2OG stock solutions (10 mM) were prepared freshly every day in deionized water as for the PHD2 assays14 . The synthetic consensus ankyrin […]
peptide ([…]-CONH2) was synthesized by GL Biochem
(Shanghai) Ltd and dissolved to 1 mM in deionized water.
20 μl FIH (100 nM) in the assay buffer (50 mM Tris.Cl pH 7.8, 50 mM NaCl) was pre-incubated for 15 minutes in the presence of the inhibitors and the enzyme reaction initiated by addition of 20 μl substrate (200 μM L-ascorbic acid, 20 μM Fe2+, 10 μM synthetic ankyrin peptide 14 and 20 μM 2OG). After 15 minutes the reaction was quenched by addition of 4 μl 10% formic acid and the reaction transferred to a RapidFire RF360 high throughput sampling robot. Samples were aspirated under vacuum onto a C4 Solid Phase Extraction (SPE) cartridge.
After an aqueous washing step (0.1% formic acid in water), to remove non-volatile buffer components from the C4 SPE, peptide was eluted in an organic washing step (85% acetonitrile in water, 0.1% formic acid) and injected into an Agilent 6530 Q-TOF mass spectrometer. Ion chromatogram data was extracted for the non-hydroxylated peptide substrate and the hydroxylated peptide product; the peak area data for extracted ion chromatograms were integrated using RapidFire Integrator software. % conversion of substrate to product was calculated in Microsoft excel and IC50 curves generated using Graphpad Prism.
Cell Culture and Immunoblotting […]
Cells were harvested in urea/SDS buffer (6.7 M urea, 10 mM Tris-Cl pH 6.8, 10% glycerol, and1% SDS) supplemented with 1mM dithiothreitol following a phosphate-buffered saline (PBS) rinse. Cell extracts were analyzed with SDS-PAGE, electroblotted to polyvinylidene difluoride (PVDF) membrane (Millipore) and probed with the corresponding primary antibody for 1 hour at room temperature or overnight at 4 °C. […]
(In general: In western blotting, separated proteins are transferred to a membrane and probed.)

Another test concerns the target T1, JARID1A (KDM5A) (Homo sapiens, UniProt P29375).
T1 sequence (P29375 12-797 limits assumed): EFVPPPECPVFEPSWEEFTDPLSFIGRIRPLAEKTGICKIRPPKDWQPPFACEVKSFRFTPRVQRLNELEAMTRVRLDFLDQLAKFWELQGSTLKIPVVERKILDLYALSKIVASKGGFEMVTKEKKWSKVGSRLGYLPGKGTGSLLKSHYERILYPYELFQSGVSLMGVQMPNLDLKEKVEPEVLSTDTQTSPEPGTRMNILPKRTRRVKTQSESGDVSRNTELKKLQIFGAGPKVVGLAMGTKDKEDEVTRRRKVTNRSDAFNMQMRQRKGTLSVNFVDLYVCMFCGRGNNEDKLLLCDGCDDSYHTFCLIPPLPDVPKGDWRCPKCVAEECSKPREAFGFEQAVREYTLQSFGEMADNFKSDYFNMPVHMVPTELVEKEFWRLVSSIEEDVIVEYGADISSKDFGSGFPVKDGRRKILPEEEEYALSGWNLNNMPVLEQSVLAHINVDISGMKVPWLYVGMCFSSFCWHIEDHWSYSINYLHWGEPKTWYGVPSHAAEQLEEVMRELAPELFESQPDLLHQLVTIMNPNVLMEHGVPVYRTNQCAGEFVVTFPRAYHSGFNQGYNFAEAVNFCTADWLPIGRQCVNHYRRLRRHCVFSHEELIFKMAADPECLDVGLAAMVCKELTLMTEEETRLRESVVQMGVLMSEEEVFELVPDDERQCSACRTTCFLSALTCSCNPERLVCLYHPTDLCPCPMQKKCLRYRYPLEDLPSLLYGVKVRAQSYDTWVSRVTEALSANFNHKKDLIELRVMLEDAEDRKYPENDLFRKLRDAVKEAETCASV
Kind of test: AlphaScreen histone demethylase assay. The test is classed as biochemical. In general terms: Alpha assays give light when donor and acceptor beads are brought close together.

A further test concerns the target PHD1 (Homo sapiens, UniProt Q96KS0). The test is described as follows: MALDI-TOF MS PHD hydroxylation assay. The class given is biochemical. The method, then:
(§1) Protocols for in vitro PHD1–3 MALDI-TOF MS hydroxylation assays[30] and for the AlphaScreen histone demethylase assays[44] were as reported.
(§2) Although sharing homologous C-terminal catalytic domains, the N-terminal regions of PHD1–3 vary. […] In vitro inhibition assays of the clinical trial PHD inhibitors (and some of their structurally related analogue) against 1 μM recombinant human PHD1–3 were performed.
(§3) Fig. S11. In vitro PHD isoform selectivity profiling of PHD inhibitors. Inhibition of PHD inhibitors against human PHD125 -3 as assayed by MALDI-TOF MS (the protocol is described in Chan et al. ). Eight concentrations were used to obtained dose-response curve for each compound. Data points presented in the graph are mean with standard deviation, n=3. IC50 values (listed in Supplemental Table S3) were calculated using GraphPad Prism® 5.04.
(§4) (1 picture or pasted object on this page, not shown here)

The target in another test is PHD3 (Homo sapiens, UniProt Q9H6Z9). The test is described as follows: MALDI-TOF MS PHD hydroxylation assay. The class given is biochemical. The method, then: as §1, §2, §3, §4
Chain of PHD3 (Q9H6Z9 whole entry): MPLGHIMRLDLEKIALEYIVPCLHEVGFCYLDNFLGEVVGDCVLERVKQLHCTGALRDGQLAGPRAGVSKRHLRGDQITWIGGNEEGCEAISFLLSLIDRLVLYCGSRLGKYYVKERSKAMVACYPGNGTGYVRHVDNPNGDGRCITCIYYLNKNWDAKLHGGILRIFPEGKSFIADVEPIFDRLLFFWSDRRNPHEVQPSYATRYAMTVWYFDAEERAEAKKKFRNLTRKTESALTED
[2] abbreviates: 1μM isolated recombinant human PHD1, MALDI-TOF MS, read-out: IC50 PHD1.
[3] abbreviates: 1μM isolated recombinant human PHD3, MALDI-TOF MS, read-out: IC50 PHD3.

Chain of PHD1 (Q96KS0 whole entry): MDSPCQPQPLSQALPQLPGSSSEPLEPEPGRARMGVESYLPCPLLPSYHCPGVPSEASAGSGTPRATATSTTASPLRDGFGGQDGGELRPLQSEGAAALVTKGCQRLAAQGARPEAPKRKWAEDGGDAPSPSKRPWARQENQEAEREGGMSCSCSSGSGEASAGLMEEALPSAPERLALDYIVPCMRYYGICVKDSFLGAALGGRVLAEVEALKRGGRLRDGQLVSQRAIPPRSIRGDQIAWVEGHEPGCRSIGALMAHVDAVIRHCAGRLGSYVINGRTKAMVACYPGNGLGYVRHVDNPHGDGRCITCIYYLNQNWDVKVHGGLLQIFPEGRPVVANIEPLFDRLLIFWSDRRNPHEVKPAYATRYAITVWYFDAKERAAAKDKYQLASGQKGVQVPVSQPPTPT

Consider `O=C(O)CNC(=O)C1C(=O)N(C2CCCCC2)C(=O)N(C2CCCCC2)C1=O` [GSK1278863], for which the “concentration at which HIF-1α levels (and HIF-2α levels in Hep3b cells) were saturated” value (shortened to “concentration at which HIF-1α levels”) in test [1] was less than 100 µM. Moreover, the half-maximal inhibitory concentration (IC50) on JARID1A (KDM5A) is greater than 100 µM; against PHD1 it was 1.5 µM; against PHD3 it was 0.61 µM.
Turning to `O=c1c(-n2ccnn2)c[nH]n1-c1cc(N2CCOCC2)ncn1` [Molidustat], the “concentration at which HIF-1α levels” value in test [1] was less than 100 µM. The half-maximal inhibitory concentration (IC50) on JARID1A (KDM5A) (read-out: IC50 JARID1A (KDM5A)) is greater than 100 µM; at PHD1 (setting [2]) it was 1.45 µM; at PHD3 (setting [3]) it was 0.72 µM.
As for `O=C(O)CNC(=O)c1ncc(-c2cccc(Cl)c2)cc1O` [Vadadustat], the values for the concentration for half-maximal inhibition (IC50) on JARID1A (KDM5A) (read-out: IC50 JARID1A (KDM5A)), at PHD1 (setting [2]) and on PHD3 (setting [3]) were greater than 100 µM, 0.84 µM and 0.26 µM, respectively.
For the compound `CC(C)(C)OC(=O)c1ccc(-n2[nH]cc(-n3ccnn3)c2=O)nc1` [IOX4], the IC50 turned out to be 53 µM at JARID1A (KDM5A) (read-out: IC50 JARID1A (KDM5A)), 0.55 µM on PHD1 (setting [2]) and 0.69 µM on PHD3 (setting [3]).
For the compound `Cc1nc(C(=O)NCC(=O)O)c(O)c2ccc(Oc3ccccc3)cc12` [FG-4592], the “concentration at which HIF-1α levels” value in test [1] was less than 100 µM. The results for the IC50 on JARID1A (KDM5A) (read-out: IC50 JARID1A (KDM5A)), on PHD1 (setting [2]) and at PHD3 (setting [3]) were greater than 100 µM, 1.4 µM and 1.32 µM, respectively.
